PMC11672637, “7-O-Carboxylic Acid-Substituted 3-O-Alkyl Difluoroquercetin; An Aztreonam-Potentiating Agent Against Carbapenemase-Producing Pseudomonas aeruginosa Through Simultaneous Inhibition of Metallo-β-Lactamase and Efflux Pump” (Antibiotics, 2024)
Where two headings read alike, the source gives them in different places.

Key:
Type in all cases: cell-based, P. aeruginosa
PA-003, blaVIM = assay: Time–kill assay; conditions: for Log CFU/mL, ATM + 5: 24 h
Experimental: (§1) Aliquots (50 μL) were taken from the incubation mixture at regular time intervals (t = 0, 3, 6, and 24 h), serially diluted in 0.85% NaCl solution, and plated on BAP. Bacterial colonies were counted, and the data are presented as the means of at least three independent experiments.

PA-014, blaGES = assay: Time–kill assay; conditions: for Log CFU/mL, ATM + 5: 24 h
Experimental: as §1

PA-017, blaNDM = assay: Time–kill assay; conditions: for Log CFU/mL, ATM + 5: 24 h
Experimental: as §1

PA-033, blaNDM = assay: MIC / checkerboard with ATM; conditions: for MIC: Pseudomonas aeruginosa, read-out: MIC of ATM with 5, PA-033

`CC(C)(C)CCOc1c(-c2ccc(F)c(F)c2)oc2cc(OCC(=O)O)cc(O)c2c1=O` [Compound 5, 2-((2-(3,4-Difluorophenyl)-3-(3,3-dimethylbutoxy)-5-hydroxy-4-oxo-4H-chromen-7-yl)oxy)acetic Acid] was tested, and the “Diff. (ATM + 5 vs ATM only)” value (PA-003, blaVIM; ATM 1/2 MIC + 5 at 8 mg/L) was −0.04 Log CFU/mL, the “Log CFU/mL, ATM + 5” value (PA-003, blaVIM; ATM 1/2 MIC + 5 at 8 mg/L) was 9.84 Log CFU/mL and the “Diff. (ATM + 5, 24 h vs initial inoculum)” value (PA-003, blaVIM; ATM 1/4 MIC + 5 at 8 mg/L) was 4.35 Log CFU/mL. For the same molecule, the “Diff. (ATM + 5 vs ATM only)” value (PA-003, blaVIM; ATM 1/4 MIC + 5 at 8 mg/L) was −0.1 Log CFU/mL, the “Log CFU/mL, ATM + 5” value (PA-003, blaVIM; ATM 1/4 MIC + 5 at 8 mg/L) was 10.08 Log CFU/mL and the “Diff. (ATM + 5, 24 h vs initial inoculum)” value (PA-003, blaVIM; ATM 1 MIC + 5 at 8 mg/L) was −5.5 Log CFU/mL. For the same molecule, the “Diff. (ATM + 5 vs ATM only)” value (PA-003, blaVIM; ATM 1 MIC + 5 at 8 mg/L) was −8.9 Log CFU/mL, the “Synergistic activity, interpretation” value (PA-003, blaVIM; ATM 1 MIC + 5 at 8 mg/L) was “Synergy (a ≥ 2 log10 decrease in CFU/mL for the combination of ATM and 5 compared to ATM alone after 24 h of incubation)” and the “Log CFU/mL, ATM + 5” value (PA-003, blaVIM; ATM 1 MIC + 5 at 8 mg/L) was 0.23 Log CFU/mL. The “Diff. (ATM + 5, 24 h vs initial inoculum)” value (PA-003, blaVIM; ATM 2 MIC + 5 at 8 mg/L) was −5.73 Log CFU/mL, the “Diff. (ATM + 5 vs ATM only)” value (PA-003, blaVIM; ATM 2 MIC + 5 at 8 mg/L) was −6.4 Log CFU/mL and the “Synergistic activity, interpretation” value (PA-003, blaVIM; ATM 2 MIC + 5 at 8 mg/L) was “Synergy (a ≥ 2 log10 decrease in CFU/mL for the combination of ATM and 5 compared to ATM alone after 24 h of incubation)”. For the same molecule, the “Log CFU/mL, ATM + 5” value (PA-003, blaVIM; ATM 2 MIC + 5 at 8 mg/L) was 0.00 Log CFU/mL, the “Diff. (ATM + 5, 24 h vs initial inoculum)” value (PA-014, blaGES; ATM 1/2 MIC + 5 at 8 mg/L) was 1.65 Log CFU/mL and the “Diff. (ATM + 5 vs ATM only)” value (PA-014, blaGES; ATM 1/2 MIC + 5 at 8 mg/L) was −2.23 Log CFU/mL. The “Synergistic activity, interpretation” value (PA-014, blaGES; ATM 1/2 MIC + 5 at 8 mg/L) was “Synergy (a ≥ 2 log10 decrease in CFU/mL for the combination of ATM and 5 compared to ATM alone after 24 h of incubation)”, the “Log CFU/mL, ATM + 5” value (PA-014, blaGES; ATM 1/2 MIC + 5 at 8 mg/L) was 6.60 Log CFU/mL and the “Diff. (ATM + 5, 24 h vs initial inoculum)” value (PA-014, blaGES; ATM 1/4 MIC + 5 at 8 mg/L) was 3.88 Log CFU/mL. The “Diff. (ATM + 5 vs ATM only)” value (PA-014, blaGES; ATM 1/4 MIC + 5 at 8 mg/L) was −0.5 Log CFU/mL, the “Log CFU/mL, ATM + 5” value (PA-014, blaGES; ATM 1/4 MIC + 5 at 8 mg/L) was 8.83 Log CFU/mL and the “Diff. (ATM + 5, 24 h vs initial inoculum)” value (PA-014, blaGES; ATM 1 MIC + 5 at 8 mg/L) was −2.32 Log CFU/mL. For the same molecule, the “Diff. (ATM + 5 vs ATM only)” value (PA-014, blaGES; ATM 1 MIC + 5 at 8 mg/L) was −5.05 Log CFU/mL, the “Synergistic activity, interpretation” value (PA-014, blaGES; ATM 1 MIC + 5 at 8 mg/L) was “Synergy (a ≥ 2 log10 decrease in CFU/mL for the combination of ATM and 5 compared to ATM alone after 24 h of incubation)” and the “Log CFU/mL, ATM + 5” value (PA-014, blaGES; ATM 1 MIC + 5 at 8 mg/L) was 2.63 Log CFU/mL. For the same molecule, the “Diff. (ATM + 5, 24 h vs initial inoculum)” value (PA-014, blaGES; ATM 2 MIC + 5 at 8 mg/L) was −4.8 Log CFU/mL, the “Diff. (ATM + 5 vs ATM only)” value (PA-014, blaGES; ATM 2 MIC + 5 at 8 mg/L) was −2.3 Log CFU/mL and the “Synergistic activity, interpretation” value (PA-014, blaGES; ATM 2 MIC + 5 at 8 mg/L) was “Synergy (a ≥ 2 log10 decrease in CFU/mL for the combination of ATM and 5 compared to ATM alone after 24 h of incubation)”. The “Log CFU/mL, ATM + 5” value (PA-014, blaGES; ATM 2 MIC + 5 at 8 mg/L) was 0.15 Log CFU/mL, the “Diff. (ATM + 5, 24 h vs initial inoculum)” value (PA-017, blaNDM; ATM 1/2 MIC + 5 at 8 mg/L) was 1.52 Log CFU/mL and the “Diff. (ATM + 5 vs ATM only)” value (PA-017, blaNDM; ATM 1/2 MIC + 5 at 8 mg/L) was −3.45 Log CFU/mL. For the same molecule, the “Synergistic activity, interpretation” value (PA-017, blaNDM; ATM 1/2 MIC + 5 at 8 mg/L) was “Synergy (a ≥ 2 log10 decrease in CFU/mL for the combination of ATM and 5 compared to ATM alone after 24 h of incubation)”, the “Log CFU/mL, ATM + 5” value (PA-017, blaNDM; ATM 1/2 MIC + 5 at 8 mg/L) was 6.52 Log CFU/mL and the “Diff. (ATM + 5, 24 h vs initial inoculum)” value (PA-017, blaNDM; ATM 1/4 MIC + 5 at 8 mg/L) was 4.97 Log CFU/mL. The “Diff. (ATM + 5 vs ATM only)” value (PA-017, blaNDM; ATM 1/4 MIC + 5 at 8 mg/L) was −0.77 Log CFU/mL, the “Log CFU/mL, ATM + 5” value (PA-017, blaNDM; ATM 1/4 MIC + 5 at 8 mg/L) was 9.97 Log CFU/mL and the “Diff. (ATM + 5, 24 h vs initial inoculum)” value (PA-017, blaNDM; ATM 1 MIC + 5 at 8 mg/L) was −4.75 Log CFU/mL. For the same molecule, the “Diff. (ATM + 5 vs ATM only)” value (PA-017, blaNDM; ATM 1 MIC + 5 at 8 mg/L) was −6.27 Log CFU/mL, the “Synergistic activity, interpretation” value (PA-017, blaNDM; ATM 1 MIC + 5 at 8 mg/L) was “Synergy (a ≥ 2 log10 decrease in CFU/mL for the combination of ATM and 5 compared to ATM alone after 24 h of incubation)” and the “Log CFU/mL, ATM + 5” value (PA-017, blaNDM; ATM 1 MIC + 5 at 8 mg/L) was 0.25 Log CFU/mL. The “Diff. (ATM + 5, 24 h vs initial inoculum)” value (PA-017, blaNDM; ATM 2 MIC + 5 at 8 mg/L) was −5.00 Log CFU/mL, the “Diff. (ATM + 5 vs ATM only)” value (PA-017, blaNDM; ATM 2 MIC + 5 at 8 mg/L) was −0.12 Log CFU/mL and the “Log CFU/mL, ATM + 5” value (PA-017, blaNDM; ATM 2 MIC + 5 at 8 mg/L) was 0.00 Log CFU/mL. For the same molecule, the “Activity (FICI class)” value (PA-033, blaNDM; PA-033) was “I (I (indifference, 0.5 < FICI ≤ 4))”, the “Concentrations of ATM and 5 at lowest FICI (ATM/5)” value (PA-033, blaNDM; PA-033) was 1/8 and the “Lowest FICI (ATM/5)” value (PA-033, blaNDM; PA-033) was 0.52. For the same molecule, the “Susceptibility to ATM” value (PA-033, blaNDM; PA-033, ATM/5) was “S (S (sensitive, MIC ≤ 8 mg/L))”, the “FD (fold decrease in MIC of ATM with 5)” value (PA-033, blaNDM; PA-033, lowest-FICI combination) was 2 and the MIC (PA-033, blaNDM; 5 at 1 mg/L) was 2 µg/mL. The MIC (PA-033, blaNDM; 5 at 2 mg/L) was 2 µg/mL, the MIC (PA-033, blaNDM; 5 at 4 mg/L) was 2 µg/mL and the MIC (PA-033, blaNDM; 5 at 8 mg/L) was 1 µg/mL. It also gave an MIC (PA-033, blaNDM; 5 at 16 mg/L) of 1 µg/mL, an MIC (PA-033, blaNDM; 5 at 32 mg/L) of 1 µg/mL and an MIC (PA-033, blaNDM; 5 at 64 mg/L) of 1 µg/mL.
